# Results published in patent US20030224021A1, “Methods of using epitope peptides of human pathogens” (Regents of the University of Minnesota, priority 1998, published 2003).
# Where no end group is shown, it is not given here.
# Experiments:
# PBMC = PBMC of 49 HLA heterogenous subjects challenged with DTX and TTX universal epitope peptides; format: cell-based, human; conditions: share of the 49 subjects whose PBMC responded
# Source text: PBMC of 49 randomly selected, HLA heterogenous human subjects were challenged with each of the identified DTX and TTX universal epitope peptides. Generally, the PBMCs of each subject recognized several universal epitopes and all but one recognized at least one of the peptides.
# anti-DTD CD4+ cell lines = experiment: Proliferation assay (3H-thymidine) with anti-DTD CD4+ cell lines challenged with individual synthetic DTX peptides; format: cell-based, human; conditions: seven subjects of different HLA class II haplotype; peptide 10 μg/ml
# Method: Propagation of CD4+ cell lines specific for DTD and proliferation assay. PBMC were suspended (1-2×10^6 cell/ml) in TCM containing 10 μg/ml DTD, and cultivated in T25 flasks (Costar, Cambridge, Mass.) for 1 week. The reactive lymphoblasts were isolated on Percoll gradients, expanded in TCM containing T-cell growth factor (TCGF, Lymphocult, Biotest Diagnostic, Dreieich, Germany, at a final concentration of IL-2 of 10 units/ml), and enriched in DTD-specific cells by weekly stimulations with the same amount of DTD plus irradiated (4,000 rads: 1 rad=0.01 Gy) autologous PBMC as APC. The response to DTD and PHA of the T cell lines obtained was tested weekly.
# Proliferation assays with CD4+ cell lines for DTD. Proliferation assays were carried out with CD4+ lines, using 2×10^4 cells/well, irradiated autologous PBMC (2×10^5 cells/well) as APC, and the Ags described above for CD4+ enriched PBMC. Basal growth rate (Blank) was determined from triplicate wells containing CD4+ cell lines cultivated without any stimulus. After one day, the cultured cells were pulsed for 16 hours with ^3H-thymidine, collected, and the ^3H-thymidine incorporation measured as described above for CD4+ enriched PBMC.
# Sequence segments of DTX recognized by anti-DTD T cell lines. The DTX epitopes recognized by the CD4+ cell lines were identified in proliferation assays using individual synthetic DTX-specific peptides. […] The consistency of the recognition was verified by repeating the test 1-2 weeks later.
Substance,positive response (1%) (PBMC) [%],recognition by anti-DTD CD4+ cell lines (anti-DTD CD4+ cell lines)
GVLLPTIPGKLDVNKSKTHI [431-450],70,recognized by all seven individuals
VHHNTEEIVAQSIALSSLMV [321-340],76,recognized by all seven individuals
VDIGFAAYNFVESIINLFQVV [351-370],71,recognized by all seven individuals
PVFAGANYAAWAVNVAQVI [271-290],84,recognized by all seven individuals
Gln-Ser-Ile-Ala-Leu-Ser-Ser-Leu-Met-Val-Ala-Gln-Ala-Ile-Pro-leu-Val-Gly-Glu-Leu [331-350],80,recognized by all seven individuals
QGESGHDIKITAENTPLPIA [411-430],70,recognized by all seven individuals
TDD: column head of Table 4 beside the TTD sequence segments; presumably tetanus toxoid,96,–
